Reference: patent publication US20210278408A1, “METHODS OF TREATMENT OF CANCER WITH SUBSTITUTED PYRROLE AND PYRAZOLE COMPOUNDS AND DIAGNOSIS OF CANCERS SUSCEPTIBLE TO TREATMENT WITH SUBSTITUTED PYRROLE AND PYRAZOLE COMPOUNDS” (Bantam Pharmaceutical, LLC, priority 2018, published 2021)
Where two headings read alike, the source gives them in different places.

Experiments:
LoVo = test: Anti-proliferative activity, CellTiter-Glo, 72 hours: LoVo; format: cell-based, human; details: Homo sapiens, LoVo (colorectal cancer), Cell-Titre-Glo
Procedure: (§1) Anti-proliferative activity of BTM compounds. The anti-proliferative activities of Compound A197 and Compound B19 were compared to 4EGI-1 (a known cancer cell growth inhibitor) in a panel of 99 tumor lines. Methods: A panel of 96 tumor and 3 normal cell lines were tested for sensitivity to the test compound. The cell lines were cultured in standard media and pipetted into 96-well plates at the required plating densities. The cells were acclimated for 24 hours prior to compound testing. Compound was prepared as a stock of 20 mM in DMSO. To prepare dose response curves compound was serially diluted in DMSO and dispensed into the plate wells using a Tecan D300e digital dispenser. The final DMSO concentration was 0.15%. After 72 hours of incubation cell number was determined using the CellTiter-Glo® protocol according to the manufacturers instructions (Promega). In this assay, ATP is measured as a surrogate of cell number. The activity of the compound is determined by comparing untreated cells with treated cells and calculating the % of signal retained. Compound activity is measured as an EC50 of maximum level of efficacy and the two are used to compute an activity area. The table below provides a comparison of activity in a data sample.

Jurkat = test: Anti-proliferative activity, CellTiter-Glo, 72 hours: Jurkat; format: cell-based, human; details: Homo sapiens, Jurkat (T cell leukemia), Cell-Titre-Glo
Procedure: as §1

D283 Med = test: Cell viability, CellTiter-Glo, 96 h: D283 Med; format: cell-based; details: for IC50: read-out: Absolute IC50
Procedure: (§2) Viability was determined by using the 50% inhibitory concentration (IC50) as determined with the CellTiter-Glo® Viability Assay (Promega). All cells were cultured under standard conditions in media supplemented with 10-15% Fetal Bovine Serum, at a temperature of 37° C., 5% CO2 and 95% humidity.
(§3) Cells were harvested during the logarithmic growth period, counted, and the cell concentration adjusted to 4.44×10^4 cells/mL using culture medium. A final cell density of 4×10^3 cells/well was added in a 90 μL cell suspension to plates A and B as shown.
(§4) Test plate B was incubated for 96 h in the humidified incubator at 37° C. with 5% CO2.
(§5) Following the incubation, the plate was equilibrated at room temperature for thirty minutes. CellTiter-Glo® (50 μL) was added to each well of the plate and contents mixed for five minutes on an orbital shaker to induce cell lysis. The luminescent signal was allowed to stabilize at room temperature for 20 minutes and the luminescence recorded.
(§6) IC50 (EC50) was calculated using a dose-response curve, fitted using a nonlinear regression model with a sigmoidal dose response. Survival rate was calculated using the formula:
(§7) The Surviving rate (%)=(LumTest article−LumMedium control)/(LumNon-treated−LumMedium control)×100%.
(§8) Absolute IC50 (EC50) was calculated according to the dose-response curve generated by the statistical software (GraphPad Prism 5.0).

LS 174T = test: Cell viability, CellTiter-Glo, 96 h: LS 174T; format: cell-based
Procedure: as §2, §3, §4, §5, §6, §7, §8

143B = test: Cell viability, CellTiter-Glo, 96 h: 143B; format: cell-based; details: for IC50: read-out: Absolute IC50
Procedure: as §2, §3, §4, §5, §6, §7, §8

HCT-116 = test: Anti-proliferative activity, CellTiter-Glo, 72 hours: HCT-116; format: cell-based, human; details: Homo sapiens, HCT-116 (colorectal cancer), Cell-Titre-Glo
Procedure: as §1

MDA-MB-231 = test: Anti-proliferative activity, CellTiter-Glo, 72 hours: MDA-MB-231; format: cell-based, human; details: Homo sapiens, MDA-MB-231 (breast cancer), Cell-Titre-Glo
Procedure: as §1

NCI-H460 = test: Anti-proliferative activity, CellTiter-Glo, 72 hours: NCI-H460; format: cell-based, human; details: Homo sapiens, NCI-H460 (non-small cell lung cancer), Cell-Titre-Glo
Procedure: as §1

SU-DHL-6 = test: Anti-proliferative activity, CellTiter-Glo, 72 hours: SU-DHL-6; format: cell-based, human; details: Homo sapiens, SU-DHL-6 (B-cell lymphoma), Cell-Titre-Glo
Procedure: as §1

[1] = Cell No. 407, read-out: Absolute IC50

| Compound | IC50 (LoVo) [µM] | IC50 (Jurkat) [µM] | % inhibition at top conc. (D283 Med) [%] | IC50 (D283 Med; Homo sapiens) [µM] | % inhibition at top conc. (LS 174T; Cell No. 406) [%] | % inhibition at top conc. (LS 174T; Cell No. 407) [%] | IC50 (LS 174T; [1]) [µM] | IC50 (LS 174T; Homo sapiens, LS174T, Cell No. 406, read-out: Absolute IC50) [µM] | % inhibition at top conc. (143B) [%] | IC50 (143B; Homo sapiens) [µM] | IC50 (HCT-116) [µM] | IC50 (MDA-MB-231) [µM] | IC50 (NCI-H460) [µM] | IC50 (SU-DHL-6) [µM] | IC50 (D283 Med) [µM] | IC50 (LS 174T; Cell No. 406, read-out: Absolute IC50) [µM] | IC50 (143B) [µM] |
| --- | --- | --- | --- | --- | --- | --- | --- | --- | --- | --- | --- | --- | --- | --- | --- | --- | --- |
| Cc1nn(-c2nc(-c3ccc(C(F)(F)F)cc3)c(SC(C)C)s2)c(C(=O)O)c1-c1cccc(F)c1 [Compound A197, 4-(3-fluorophenyl)-1-(5-(isopropylthio)-4-(4-(trifluoromethyl)phenyl)thiazol-2-yl)-3-methyl-1H-pyrazole-5-carboxylic acid] | 0.123 | 0.179 | 66.67 | > 30 | 15.79 | 27.00 | > 30 | > 30 | 27.55 | > 30 | 0.295 | > 30 | 0.156 | 0.521 | – | – | – |
| COC(=O)c1c(-c2cccc(F)c2)c(C)nn1-c1nc(C2=CCC(C(F)(F)F)CC2)c(SC(C)C)s1 (single isomer, unassigned) [Compound B19, methyl 4-(3-fluorophenyl)-1-(5-(isopropylthio)-4-(4-(trifluoromethyl)cyclohex-1-en-1-yl)thiazol-2-yl)-3-methyl-1H-pyrazole-5-carboxylate] | 0.116 | 0.166 | – | – | – | – | – | – | – | – | 0.343 | > 30 | 0.167 | 0.538 | – | – | – |
| N.N.[Cl][Pt][Cl] [Cisplatin, reference compound] | – | – | 99.39 | – | 96.60 | 96.74 | 8.54 | – | 99.94 | – | – | – | – | – | 0.7 | 5.89 | 3.2 |
